In patent US20050209295A1, “Methimazole derivatives and tautomeric cyclic thiones to inhibit cell adhesion” (priority 2004, published 2005):

Columns and labels:
Type in all cases: cell-based, human
[1] = system: U937 cell adhesion to HAEC; assay: Flow adhesion assay: U937 cell adhesion to TNF-α activated HAEC; settings: shear stress 1.8 dynes/cm^2
Experimental: U937 cells (American Type Culture Collection; Manassas, Va.) are cultured in RPMI supplemented with 8% FBS, 2 mM L-glutamine, 100 units/ml penicillin and 100 μg/ml streptomycin. For the adhesion assays, U937 cells are washed, resuspended to 1×10^8 cells/ml in RPMI and held on ice (<4 hrs.) until the time they are used in the flow adhesion assay.
Flow adhesion assays: A parallel plate flow chamber (Glycotech; Rockville, Md.), similar to that described by McIntire, Smith and colleagues (34) is used in this study. Our particular set up has been described previously (20). A 35-mm tissue culture dish containing a confluent HAEC monolayer is loaded into the flow chamber. After a brief rinse, U937 cells (5*10^5 cells/ml in assay buffer) are drawn over the HAEC monolayer at a shear stress of 1.8 dynes/cm^2. To determine U937 cell accumulation, the number of U937 cells adherent (either rolling or firmly adherent) to the HAEC monolayer in 8 different fields of view after 2.5 minutes of flow is determined, averaged and normalized to the area of the field of view to give the result for that particular run. Such an assay is done at least 3 times. In certain experiments, TNF-α activated HAEC, in the absence or presence of C-10, are treated with mAbs HEL3/2 or 51-10C9 (10 μg/ml) or a combination of HEL3/2 and 51-10C9. […]

VCAM-1 = assay: TNF-alpha-induced VCAM-1 RNA levels in aortic endothelial cells (Northern blot); settings: for % INHIBITION of TNF-alpha-induced VCAM-1 RNA levels: aortic endothelial cells, mean ± SD
Experimental: (§1) Cell culture and treatment of HAEC: Human aortic endothelial cells (HAEC; Cambrex Bio Science Walkersville, Inc., Walkersville, Md.) are cultured in M199 supplemented with 8% FBS, 100 μg/ml heparin, 10 ng/ml endothelial growth factor, 100 μg/ml hypothalamus extract, 2 mM L-glutamine, 1% non-essential amino acids, 100 units/ml penicillin and 100 μg/ml streptomycin. HAEC are subcultured on gelatin pre-coated: 96-well tissue culture plates (Corning Incorporated; Corning, N.Y.) for viability assays and ELISA; 100-mm tissue culture dishes (BD Falcon; Franklin Lakes, N.J.) for Northern blot analyses, Western blot analyses and EMSA; 35-mm tissue culture dishes (Corning) for adhesion assays and on 24-well tissue culture plates for luciferase promoter assays (BD Falcon). All experiments are performed with confluent HAEC monolayers. Unless noted otherwise, HAEC are treated with 25 ng/ml TNF-α, in the absence or presence of C-10 or 0.25% DMSO (carrier control for C-10), for 2-24 hrs. The concentration of DMSO is held constant at 0.25% (unless indicated otherwise) for all of the C-10 conditions.
(§2) HAEC are washed with PBS and total RNA extracted using a commercial kit (RNeasy Mini Kit; Qiagen Inc.; Valencia, Calif.). 12 μg of total RNA per lane is resolved on 1% denaturing agarose gels containing 0.66M formaldehyde. Gels are capillary blotted on Nytran membranes (Schleicher and Schuell Inc.; Keene, N.H.), UV cross-linked, and used for hybridization. The probe for IRF-1 has been previously described (33). The G3PDH cDNA is from Clontech (Palo Alto, Calif.). […]; cDNAs are labeled with α-^32P-dCTP using the Ladderman Labeling Kit (Takara Biochemical Inc.; Berkeley, Calif.) (33). Northern blots are developed using a BAS 1500 Bioimaging Analyzer (Fuji Photo Film Co., Ltd. Medical Systems USA Inc.; Stanford, Calif.). Each experiment is replicated at least twice.

IRF-1 = assay: TNF-alpha-induced IRF-1 RNA levels (Northern blot); settings: for % INIHIBITION of TNF-alpha-induced IRF-1 RNA levels: mean ± SD
Experimental: as §1, §2

ICAM-1 = assay: ELISA of TNF-α induced ICAM-1 protein on HAEC
Experimental: as §1, with “The concentration of DMSO is held constant at 0.25% (unless indicated otherwise) for all of the C-10 conditions.” left out
HAEC are washed with cold HBSS+, fixed in 1% formaldehyde at 4° C. for 20 min., washed with cold HBSS+, and incubated in cold M199 containing 8% FBS. […] Following a 10 min. incubation at room temperature, the absorbance of the fluid in each well is determined at 450 nm using a micro-well plate spectrophotometer (Molecular Devices; Sunnyvale, Calif.). […]

E-selectin = assay: ELISA of TNF-α induced E-selectin protein on HAEC
Experimental: as §1
HAEC are washed with cold HBSS+, fixed in 1% formaldehyde at 4° C. for 20 min., washed with cold HBSS+, and incubated in cold M199 containing 8% FBS. Unless otherwise noted, from this point on all antibody dilutions and washes are carried out with M199 containing 8% FBS. Murine mAbs (primary mAbs) to ECAMs are added (10 μg/ml) and the HAEC incubated at 4° C. for 20 min. Following the incubation, the wells are washed and a peroxidase conjugated polyclonal (secondary) antibody to mouse IgG is added (diluted 1:50). After a 20 min. incubation at 4° C., the wells are washed and treated with OPD dissolved in phosphate citrate buffer containing sodium perborate. Following a 10 min. incubation at room temperature, the absorbance of the fluid in each well is determined at 450 nm using a micro-well plate spectrophotometer (Molecular Devices; Sunnyvale, Calif.). In every experiment, each condition is run in triplicate wells.

HAEC = HAEC viability (MTS assay and visual inspection); settings: concentrations used in this study
Experimental: as §1

Compound: Cn1c(-c2ccccc2)cnc1S [5-Phenylmethimazole]
- effect on TNF-α induced U937 cell adhesion to HAEC ([1]; 4 hr. TNF-α, C-10 0.5 mM, mAbs 10 μg/ml): little effect
- effect on TNF-α induced U937 cell adhesion to HAEC ([1]; 24 hr. TNF-α, C-10 0.1 mM alone vs. DMSO): significantly reduced
- % INHIBITION of TNF-alpha-induced VCAM-1 RNA levels (VCAM-1; 5.0 mM): 99 ± 3%
- % INHIBITION of TNF-alpha-induced VCAM-1 RNA levels (VCAM-1; 10 :M): 75 ± 7%
- % INHIBITION of TNF-alpha-induced VCAM-1 RNA levels (VCAM-1; 100 :M): 99 ± 4%
- effect on TNF-α induced VCAM-1 mRNA expression (VCAM-1; 2 hr. TNF-α, HAEC, Northern blot): reduced, in a dose-dependent manner
- effect on TNF-α induced VCAM-1 mRNA (VCAM-1; 24 hr. TNF-α, HAEC, Northern blot): reduced, in a dose dependent manner
- effect on TNF-α induced IRF-1 mRNA expression in HAEC (IRF-1; 0.5 mM or 1 mM, 2 hr. TNF-α): reduces
- % INIHIBITION of TNF-alpha-induced IRF-1 RNA levels (IRF-1; 5 mM): 95 ± 15%
- % INIHIBITION of TNF-alpha-induced IRF-1 RNA levels (IRF-1; 10 :M): 65 ± 16%
- % INIHIBITION of TNF-alpha-induced IRF-1 RNA levels (IRF-1; 100 :M): 90 ± 17%
- effect on TNF-α induced protein expression of ICAM-1 (ICAM-1; 4 hr. TNF-α): little to no effect
- effect on TNF-α induced protein expression of ICAM-1 (ICAM-1; 24 hr. TNF-α): no effect
- effect on TNF-α induced protein expression of E-selectin (E-selectin; 4 hr. TNF-α): little to no effect
- concentration at which significant reduction of TNF-α induced E-selectin protein expression is observed (E-selectin; 24 hr. TNF-α): ≥ 0.05 mM
- effect on TNF-α induced protein expression of E-selectin (E-selectin; 24 hr. TNF-α): significantly reduces
- effect on HAEC viability (HAEC): little to no effect
